The target of one data set is T1, SOS2 (Homo sapiens, UniProt Q07890).
T1 construct: amino acids 558-1047, expressed in E. coli with a N-terminal HIS-tag MW=59.3 kDa; His (N); purchased Accelagen Inc; host or cells: E. coli
The experiment in a line: SOS2 KRAS WT GDP exchange assay. In kind it is biochemical. Here is the method:
The plates were incubated overnight at 4 °C on a shaker.
Each plate was washed 3x times […]
for 2 hours (protected from light). The secondary antibody solution as removed and each plate […]
was washed with PBST 3x times. […]
length at 3mm and both 800nm and 700nm filters. The GAPDH normalized scan values for each […]
were then calculated with the Graph pad Prism software.
EGFR selectivity was profiled using Reaction Biology’s radiometric HotSpot kinase assay with human EGFR. Compounds were sent as a powder then suspended as a 10 mM DMSO stock […]
starting at 20 μM. Reactions were carried out at 10 μM ATP.
SOS2 KRAS WT GDP Exchange Assay
The final conditions for the Functional SOS2 Assay are as follows: 50 mM HEPES 7.5, 2nM SOS2, 50nM GTP-CY5, 30nM KRAS, 0.5 nM Tb-SA, 5 mM MgCl2, 1 mM TCEP, 0.2 mg/mL BSA, ~1.0% DMSO. Recombinant human SOS2 polypeptide (Accelagen Inc., corresponding to amino acids 558-1047, expressed in E. coli with a N-terminal HIS-tag MW=59.3 kDa) and Cy5-GTP (Jena Bioscience Inc) were added to an exemplary compound (in a DMSO stock solution) at room temperature for 15 minutes. […] 100 percent of control (POC) is determined by using a DMSO control and 0 POC is determined using a concentration of control […]

For data set [1] the following is noted: mouse, IV 3 mg/kg.
Another data set has as its target T2, ROCK1 (Homo sapiens, UniProt Q13464).
T2 construct: purchased DiscoverX (Eurofins)
The experiment in a line: Safetyscan Kinases Binding. Conditions: read-out: RC50 (IC50) ROCK1 Inhibitor.

Data set [2] relates to pERK in MIA PaCa-2 tumors. The experiment in a line: Tumor pharmacodynamic (pERK) study in MIA PaCa-2 mouse xenograft.
The target in the next data set is T3, HRH1 (Homo sapiens, UniProt P35367).
T3 construct: purchased DiscoverX (Eurofins) Safetyscan Panel
Nature of the data set: Safetyscan Calcium Flux. In kind it is cell-based.

The subject of data set [3] is safety panel comprised of 78 protein targets. The experiment in a line: DiscoverX (Eurofins) Safetyscan panel, overall. The conditions noted are these: safety panel of 78 protein targets.
Another data set concerns the target T4, ADRB2 (Homo sapiens, UniProt P07550).
T4 construct: purchased DiscoverX (Eurofins) Safetyscan Panel
Nature of the data set: Safetyscan cAMP. It counts as cell-based.

A further data set can be described thus: Dog PK (IV and PO). In kind it is in vivo, beagle dogs. From the text:
Table 9 PK Parameters for MRTX0902 (32) across Species | column: dog

The target of another data set is T5, AVPR1A (Homo sapiens, UniProt P37288).
T5 construct: purchased DiscoverX (Eurofins) Safetyscan Panel
Nature of the data set: Safetyscan Calcium Flux. It counts as cell-based.

Another data set has as its target T6, CCKAR (Homo sapiens, UniProt P32238).
T6 construct: purchased DiscoverX (Eurofins) Safetyscan Panel
Nature of the data set: Safetyscan Calcium Flux. It counts as cell-based.

Where only a bound is given, the exact number is not on record here.

T6 sequence (P32238 whole entry): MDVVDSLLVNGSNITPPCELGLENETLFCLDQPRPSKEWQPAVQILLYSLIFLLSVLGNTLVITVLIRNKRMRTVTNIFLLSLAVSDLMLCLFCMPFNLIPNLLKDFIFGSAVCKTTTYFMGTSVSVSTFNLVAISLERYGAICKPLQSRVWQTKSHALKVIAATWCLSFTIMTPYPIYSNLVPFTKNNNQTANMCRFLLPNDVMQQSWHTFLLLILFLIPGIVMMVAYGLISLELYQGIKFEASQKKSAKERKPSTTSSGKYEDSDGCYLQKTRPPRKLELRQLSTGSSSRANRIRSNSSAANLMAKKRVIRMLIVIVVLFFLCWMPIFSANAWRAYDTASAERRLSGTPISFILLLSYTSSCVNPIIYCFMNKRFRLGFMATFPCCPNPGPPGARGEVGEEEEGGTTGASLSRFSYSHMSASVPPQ
T3 sequence (P35367 whole entry): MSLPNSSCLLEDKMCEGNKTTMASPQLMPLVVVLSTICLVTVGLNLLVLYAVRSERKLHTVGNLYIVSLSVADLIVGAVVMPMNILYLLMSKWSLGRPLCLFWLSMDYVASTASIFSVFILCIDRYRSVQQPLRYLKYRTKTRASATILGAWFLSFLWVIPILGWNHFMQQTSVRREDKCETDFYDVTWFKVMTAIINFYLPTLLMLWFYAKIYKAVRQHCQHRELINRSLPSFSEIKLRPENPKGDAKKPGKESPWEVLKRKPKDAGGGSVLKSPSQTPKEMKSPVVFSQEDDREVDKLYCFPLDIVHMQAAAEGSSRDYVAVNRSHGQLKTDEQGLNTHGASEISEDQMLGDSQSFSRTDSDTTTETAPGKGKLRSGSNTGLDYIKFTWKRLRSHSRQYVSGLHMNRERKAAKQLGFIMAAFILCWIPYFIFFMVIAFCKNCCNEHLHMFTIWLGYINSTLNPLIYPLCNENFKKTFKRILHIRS
T4 sequence (P07550 whole entry): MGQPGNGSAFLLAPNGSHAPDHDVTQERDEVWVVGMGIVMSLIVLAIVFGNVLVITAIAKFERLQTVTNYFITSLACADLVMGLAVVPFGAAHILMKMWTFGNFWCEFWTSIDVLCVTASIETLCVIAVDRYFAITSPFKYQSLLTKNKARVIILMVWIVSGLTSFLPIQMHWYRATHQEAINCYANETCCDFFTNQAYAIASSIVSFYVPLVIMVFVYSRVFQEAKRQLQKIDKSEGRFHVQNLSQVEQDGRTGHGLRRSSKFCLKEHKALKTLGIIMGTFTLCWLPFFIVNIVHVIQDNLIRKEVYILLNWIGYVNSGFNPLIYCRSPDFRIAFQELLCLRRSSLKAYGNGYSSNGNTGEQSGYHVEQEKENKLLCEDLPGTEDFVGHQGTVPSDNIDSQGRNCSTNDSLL
T5 sequence (P37288 whole entry): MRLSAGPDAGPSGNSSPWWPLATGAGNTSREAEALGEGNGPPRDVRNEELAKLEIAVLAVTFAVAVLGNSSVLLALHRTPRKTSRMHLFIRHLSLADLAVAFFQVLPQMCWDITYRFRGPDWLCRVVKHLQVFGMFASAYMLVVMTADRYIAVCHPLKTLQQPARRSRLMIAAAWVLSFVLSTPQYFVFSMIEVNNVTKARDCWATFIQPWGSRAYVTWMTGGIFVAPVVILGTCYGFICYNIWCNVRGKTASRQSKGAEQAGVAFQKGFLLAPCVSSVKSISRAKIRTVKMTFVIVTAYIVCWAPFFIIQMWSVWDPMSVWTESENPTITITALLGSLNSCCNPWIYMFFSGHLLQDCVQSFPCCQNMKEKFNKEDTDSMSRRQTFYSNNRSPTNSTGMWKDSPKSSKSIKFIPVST
T2 sequence (Q13464 whole entry): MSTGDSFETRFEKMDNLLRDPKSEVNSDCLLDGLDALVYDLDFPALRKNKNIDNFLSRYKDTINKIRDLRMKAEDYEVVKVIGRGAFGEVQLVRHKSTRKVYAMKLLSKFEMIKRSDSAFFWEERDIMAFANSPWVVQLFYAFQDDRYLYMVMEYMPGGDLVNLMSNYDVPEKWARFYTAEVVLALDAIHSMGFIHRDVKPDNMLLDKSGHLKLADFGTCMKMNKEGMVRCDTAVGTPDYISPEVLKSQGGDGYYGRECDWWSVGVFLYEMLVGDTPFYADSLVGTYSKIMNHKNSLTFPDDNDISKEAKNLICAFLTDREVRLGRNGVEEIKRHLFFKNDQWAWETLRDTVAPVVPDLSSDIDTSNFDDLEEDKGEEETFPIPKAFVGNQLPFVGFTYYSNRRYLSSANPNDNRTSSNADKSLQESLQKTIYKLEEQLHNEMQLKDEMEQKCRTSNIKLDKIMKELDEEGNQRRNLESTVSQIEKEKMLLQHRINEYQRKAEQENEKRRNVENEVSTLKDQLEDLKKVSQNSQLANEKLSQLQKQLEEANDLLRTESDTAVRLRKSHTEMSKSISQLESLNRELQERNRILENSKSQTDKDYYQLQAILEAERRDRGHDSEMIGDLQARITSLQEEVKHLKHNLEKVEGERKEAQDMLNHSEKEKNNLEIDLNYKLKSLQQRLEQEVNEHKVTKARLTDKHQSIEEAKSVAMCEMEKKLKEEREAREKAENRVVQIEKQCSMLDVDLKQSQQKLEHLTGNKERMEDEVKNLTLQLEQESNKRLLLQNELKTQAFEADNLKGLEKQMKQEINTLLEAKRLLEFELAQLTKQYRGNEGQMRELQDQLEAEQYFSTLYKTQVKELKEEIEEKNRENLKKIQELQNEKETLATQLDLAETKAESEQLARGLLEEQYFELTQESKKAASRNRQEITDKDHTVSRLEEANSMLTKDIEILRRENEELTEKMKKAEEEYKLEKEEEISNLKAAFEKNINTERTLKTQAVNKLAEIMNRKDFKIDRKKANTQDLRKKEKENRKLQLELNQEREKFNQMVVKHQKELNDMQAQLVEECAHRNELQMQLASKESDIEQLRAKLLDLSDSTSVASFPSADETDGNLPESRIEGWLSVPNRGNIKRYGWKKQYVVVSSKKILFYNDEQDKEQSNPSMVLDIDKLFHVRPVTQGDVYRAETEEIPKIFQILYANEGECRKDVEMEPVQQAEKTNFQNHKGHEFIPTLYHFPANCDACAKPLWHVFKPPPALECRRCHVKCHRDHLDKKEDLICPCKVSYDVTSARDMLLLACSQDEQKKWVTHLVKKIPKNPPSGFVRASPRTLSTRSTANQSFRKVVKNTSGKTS
T1 sequence (Q07890 558-1047): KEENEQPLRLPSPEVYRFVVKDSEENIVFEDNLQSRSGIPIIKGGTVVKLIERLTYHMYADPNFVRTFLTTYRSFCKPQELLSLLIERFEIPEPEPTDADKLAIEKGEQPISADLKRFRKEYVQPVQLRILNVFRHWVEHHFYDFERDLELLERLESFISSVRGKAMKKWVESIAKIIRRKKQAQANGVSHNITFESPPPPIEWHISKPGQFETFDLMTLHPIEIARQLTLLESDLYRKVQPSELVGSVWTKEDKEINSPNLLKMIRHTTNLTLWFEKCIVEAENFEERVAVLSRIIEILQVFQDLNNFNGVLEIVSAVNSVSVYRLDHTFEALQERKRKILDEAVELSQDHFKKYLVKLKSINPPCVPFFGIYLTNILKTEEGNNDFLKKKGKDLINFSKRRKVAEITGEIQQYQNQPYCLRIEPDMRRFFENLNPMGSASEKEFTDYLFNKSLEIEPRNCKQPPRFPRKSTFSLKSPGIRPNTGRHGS

Take `Cc1c(C#N)cccc1[C@@H](C)Nc1nnc(C)c2cnc(N3CCOCC3)cc12` [Compound 32, (R)-2-Methyl-3-(1-((4-methyl-7-morpholinopyrido[3,4-d]pyridazin-1-yl)amino)ethyl)benzonitrile]: the IC50 on SOS2 is over 10 µM; on ROCK1 it was over 10 µM; on HRH1 (antagonist mode, read-out: RC50 (IC50) HRH1 Antagonist), over 10 µM; in [3], over 10 µM; on ADRB2 (antagonist mode, read-out: RC50 (IC50) ADRB2 Antagonist) it was over 10 µM; at AVPR1A (antagonist mode, read-out: RC50 (IC50) AVPR1A Antagonist), over 10 µM. Besides, at CCKAR (antagonist mode, read-out: RC50 (IC50) CCKAR Antagonist), the IC50 was over 10 µM. Also, the Cl in data set [1] was 0.264 L/h/kg. In addition, the “IV t1/2” value in data set [1] is 78 min. Further, the “Vd,ss” value in [1] is on record as 0.28 L/kg. For the same molecule, the “pERK modulation in tumors, combination” value in data set [2] (MRTX0902 in combination with MRTX849, 6 days of dosing, tumors collected 4 h after last dose) was “increased pERK modulation”. Further, in [2] (calculated from AUC0–24 of 50 mg/kg bid in combination with MRTX849, MIA PaCa-2 PD study, 6 days of dosing), the “efficacious free Cavg” value is 0.025 µM. Further, the EC50 on HRH1 (agonist mode, read-out: RC50 (EC50) HRH1 Agonist) is over 10 µM; at ADRB2 (agonist mode, read-out: RC50 (EC50) ADRB2 Agonist) it was over 10 µM; on AVPR1A (agonist mode, read-out: RC50 (EC50) AVPR1A Agonist) it was over 10 µM; at CCKAR (agonist mode, read-out: RC50 (EC50) CCKAR Agonist), over 10 µM. The same molecule showed a F in the data set “Dog PK (IV and PO)” (IV/PO 2/10 mg/kg, PO suspension in 0.5% MC (4000 cps)/0.2% Tween80 in water) of 38%. This molecule also registered a clearance in the data set “Dog PK (IV and PO)” (beagle, in vivo, IV 2 mg/kg) of 0.456 L/h/kg. The half-life in “Dog PK (IV and PO)” (beagle, in vivo, IV 2 mg/kg, read-out: IV t1/2 (converted)) is 51.6 min. In addition, the Vd in “Dog PK (IV and PO)” (beagle, in vivo, IV 2 mg/kg, read-out: Vd,ss) is 0.48 L/kg.

The record behind these values is paper PMC9340770 (Journal of Medicinal Chemistry, 2022).
